Columns and labels:
barnyardgrass [1] = assay: Test D flooded paddy test; assay type: in vivo, Echinochloa crus-galli; details: 250 g ai/ha, applied to paddy water, visual rating after 13 to 14 days, scale 0 to 100 (0 no effect, 100 complete control)
Summary of the method: (§1)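 Compounds go straight into paddy water over 2-leaf plants in pots flooded to 3 cm. Greenhouse holding lasts 13 to 14 days. Injury is scored by eye against controls from 0 (none) to 100 (complete control).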

wheat [2] = assay: Test C preemergence; assay type: in vivo, Triticum aestivum; details: for Plant response rating, Wheat: Preemergence; for Wheat plant response rating: preemergence
Summary of the method: (§2)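 Test material, in non-phytotoxic solvent with surfactant, was sprayed on the soil directly after seeding (preemergence) or on young plants of 2–10 cm with one to two leaves (postemergence). Greenhouse, 10 days; 0–100 visual control scale.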

corn [3] = assay: Test C preemergence; assay type: in vivo, Zea mays; details: for Plant response rating, Corn: Preemergence; for Corn plant response rating: preemergence
Summary of the method: as §2

ducksalad = assay: Test D flooded paddy test; assay type: in vivo, Heteranthera limosa; details: 250 g ai/ha, applied to paddy water, visual rating after 13 to 14 days, scale 0 to 100 (0 no effect, 100 complete control)
Summary of the method: as §1

wheat [4] = assay: Test C postemergence; assay type: in vivo, Triticum aestivum; details: 10 days
Summary of the method: as §2

pigweed, palmer [5] = assay: Test C preemergence; assay type: in vivo, Amaranthus palmeri; details: for Plant response rating, Pigweed, Palmer: Preemergence; for Pigweed, Palmer plant response rating: preemergence
Summary of the method: as §2

rice = assay: Test D flooded paddy test; assay type: in vivo, Oryza sativa; details: 250 g ai/ha, applied to paddy water, visual rating after 13 to 14 days, scale 0 to 100 (0 no effect, 100 complete control)
Summary of the method: as §1

horseweed = assay: Test C postemergence; assay type: in vivo, Erigeron canadensis; details: 10 days
Summary of the method: as §2

ryegrass, Italian [6] = assay: Test C preemergence; assay type: in vivo, Lolium multiflorum; details: for Plant response rating, Ryegrass, Italian: Preemergence; for Ryegrass, Italian plant response rating: preemergence
Summary of the method: as §2

pigweed, palmer [7] = assay: Test C postemergence; assay type: in vivo, Amaranthus palmeri; details: 10 days
Summary of the method: as §2

sedge, umbrella = assay: Test D flooded paddy test; assay type: in vivo, Cyperus difformis; details: 250 g ai/ha, applied to paddy water, visual rating after 13 to 14 days, scale 0 to 100 (0 no effect, 100 complete control)
Summary of the method: as §1

oat, wild [8] = assay: Test C postemergence; assay type: in vivo, Avena fatua; details: 10 days
Summary of the method: as §2

ragweed [9] = assay: Test C postemergence; assay type: in vivo, Ambrosia artemisiifolia; details: 10 days
Summary of the method: as §2

green foxtail [10] = assay: Test C preemergence; assay type: in vivo, Setaria viridis; details: for Plant response rating, Foxtail, Green: Preemergence; for Foxtail, Green plant response rating: preemergence
Summary of the method: as §2

galium = assay: Test C postemergence; assay type: in vivo, Galium aparine; details: 10 days
Summary of the method: as §2

green foxtail [11] = assay: Test C postemergence; assay type: in vivo, Setaria viridis; details: 10 days
Summary of the method: as §2

corn [12] = assay: Test C postemergence; assay type: in vivo, Zea mays; details: 10 days
Summary of the method: as §2

blackgrass [13] = assay: Test C postemergence; assay type: in vivo, Alopecurus myosuroides; details: 10 days
Summary of the method: as §2

kochia [14] = assay: Test C postemergence; assay type: in vivo, Bassia scoparia; details: 10 days
Summary of the method: as §2

ryegrass, Italian [15] = assay: Test C postemergence; assay type: in vivo, Lolium multiflorum; details: 10 days
Summary of the method: as §2

ragweed [16] = assay: Test C preemergence; assay type: in vivo, Ambrosia artemisiifolia; details: for Plant response rating, Ragweed: Preemergence; for Ragweed plant response rating: preemergence
Summary of the method: as §2

oat, wild [17] = assay: Test C preemergence; assay type: in vivo, Avena fatua; details: for Plant response rating, Oat, Wild: Preemergence; for Oat, Wild plant response rating: preemergence
Summary of the method: as §2

soybean [18] = assay: Test C postemergence; assay type: in vivo, Glycine max; details: 10 days
Summary of the method: as §2

barnyardgrass [19] = assay: Test C postemergence; assay type: in vivo, Echinochloa crusgalli; details: 10 days
Summary of the method: as §2

soybean [20] = assay: Test C preemergence; assay type: in vivo, Glycine max; details: for Plant response rating, Soybean: Preemergence; for Soybean plant response rating: preemergence
Summary of the method: as §2

barnyardgrass [21] = assay: Test C preemergence; assay type: in vivo, Echinochloa crusgalli; details: for Plant response rating, Barnyardgrass: Preemergence; for Barnyardgrass plant response rating: preemergence
Summary of the method: as §2

blackgrass [22] = assay: Test C preemergence; assay type: in vivo, Alopecurus myosuroides; details: for Plant response rating, Blackgrass: Preemergence; for Blackgrass plant response rating: preemergence
Summary of the method: as §2

kochia [23] = assay: Test C preemergence; assay type: in vivo, Bassia scoparia; details: for Plant response rating, Kochia: Preemergence; for Kochia plant response rating: preemergence
Summary of the method: as §2

[24] = 500 g ai/ha, visual rating after 10 days, 0 to 100 scale (0 no effect, 100 complete control)
[25] = Test C, 125 g ai/ha, 0 to 100 scale (0 no effect, 100 complete control)
[26] = 125 g ai/ha, postemergence, 0 to 100 scale, 0 no effect, 100 complete control
[27] = Postemergence, 500 g ai/ha, visual 0 to 100 scale (0 no effect, 100 complete control)
[28] = 500 g ai/ha, 0 to 100 scale (0 no effect, 100 complete control)
[29] = 125 g ai/ha, 0 to 100 scale, 0 no effect, 100 complete control
[30] = Postemergence, 125 g ai/ha, 0 to 100 scale (0 no effect, 100 complete control)
[31] = 500 g ai/ha, postemergence, 0 to 100 scale (0 no effect, 100 complete control)

COc1ccc(-n2cnc(C(C)C)n2)cc1C(=O)N1C[C@H](C)Oc2c(C)cccc21 [Compound 210]
70: Plant response rating, Kochia (kochia [14]; [26])
15: Plant response rating, Rice (Flood) (rice)
10: Plant response rating, Soybean (soybean [18]; [27])
80: Plant response rating, Horseweed (horseweed; [26]) | Plant response rating, Horseweed (horseweed; [27]) | Plant response rating, Oat, Wild (oat, wild [8]; [26]) | Plant response rating, Oat, Wild (oat, wild [8]; [27]) | Plant response rating, Ragweed (ragweed [9]; [27]) | Plant response rating, Corn (corn [12]; [26]) | Plant response rating, Ragweed (ragweed [16]; [24]) | Blackgrass plant response rating (blackgrass [22]; [25])
90: Plant response rating, Wheat (wheat [2]; [24]) | Wheat plant response rating (wheat [2]; [25]) | Plant response rating, Wheat (wheat [4]; [27]) | Plant response rating, Pigweed, Palmer (pigweed, palmer [7]; [26]) | Plant response rating, Foxtail, Green (green foxtail [11]; [26]) | Plant response rating, Foxtail, Green (green foxtail [11]; [27]) | Plant response rating, Corn (corn [12]; [27]) | Plant response rating, Blackgrass (blackgrass [13]; [26]) | Plant response rating, Blackgrass (blackgrass [13]; [27]) | Plant response rating, Kochia (kochia [14]; [27]) | Plant response rating, Ryegrass, Italian (ryegrass, Italian [15]; [27]) | Plant response rating, Oat, Wild (oat, wild [17]; [24]) | Soybean plant response rating (soybean [20]; [25]) | Kochia plant response rating (kochia [23]; [25])
30: Corn plant response rating (corn [3]; [25]) | Ragweed plant response rating (ragweed [16]; [25])
50: Plant response rating, Wheat (wheat [4]; [26]) | Plant response rating, Barnyardgrass (barnyardgrass [19]; [26])
0: Plant response rating, Soybean (soybean [18]; [26])
20: Plant response rating, Barnyardgrass (Flood) (barnyardgrass [1])
85: Plant response rating, Ducksalad (Flood) (ducksalad)
100: Plant response rating, Pigweed, Palmer (pigweed, palmer [5]; [24]) | Pigweed, Palmer plant response rating (pigweed, palmer [5]; [25]) | Plant response rating, Ryegrass, Italian (ryegrass, Italian [6]; [24]) | Ryegrass, Italian plant response rating (ryegrass, Italian [6]; [25]) | Plant response rating, Pigweed, Palmer (pigweed, palmer [7]; [27]) | Plant response rating, Sedge, Umbrella (Flood) (sedge, umbrella) | Plant response rating, Foxtail, Green (green foxtail [10]; [24]) | Foxtail, Green plant response rating (green foxtail [10]; [25]) | Plant response rating, Galium (galium; [26]) | Plant response rating, Galium (galium; [27]) | Plant response rating, Barnyardgrass (barnyardgrass [19]; [27]) | Plant response rating, Soybean (soybean [20]; [24]) | Plant response rating, Barnyardgrass (barnyardgrass [21]; [24]) | Barnyardgrass plant response rating (barnyardgrass [21]; [25]) | Plant response rating, Blackgrass (blackgrass [22]; [24]) | Plant response rating, Kochia (kochia [23]; [24])
60: Plant response rating, Corn (corn [3]; [24]) | Plant response rating, Ragweed (ragweed [9]; [26]) | Plant response rating, Ryegrass, Italian (ryegrass, Italian [15]; [26]) | Oat, Wild plant response rating (oat, wild [17]; [25])

CCOC[C@H]1CN(C(=O)c2cc(-n3cnc(C(C)(C)C)n3)ccc2C)c2cccc(Cl)c2O1 [Compound 413]
60: Plant response rating, Horseweed (horseweed; [31]) | Plant response rating, Foxtail, Green (green foxtail [11]; [31]) | Plant response rating, Ragweed (ragweed [16]; [29]) | Blackgrass plant response rating (blackgrass [22]; [28])
15: Plant response rating, Ducksalad (Flood) (ducksalad)
45: Plant response rating, Sedge, Umbrella (Flood) (sedge, umbrella)
10: Corn plant response rating (corn [3]; [28]) | Plant response rating, Wheat (wheat [4]; [30]) | Plant response rating, Rice (Flood) (rice) | Plant response rating, Horseweed (horseweed; [30]) | Plant response rating, Oat, Wild (oat, wild [8]; [31]) | Plant response rating, Foxtail, Green (green foxtail [11]; [30]) | Plant response rating, Corn (corn [12]; [30]) | Plant response rating, Kochia (kochia [23]; [29])
20: Plant response rating, Corn (corn [12]; [31]) | Plant response rating, Blackgrass (blackgrass [13]; [31]) | Plant response rating, Blackgrass (blackgrass [13]; [30]) | Plant response rating, Barnyardgrass (barnyardgrass [19]; [30])
50: Plant response rating, Barnyardgrass (barnyardgrass [21]; [29])
70: Plant response rating, Ragweed (ragweed [9]; [30]) | Ragweed plant response rating (ragweed [16]; [28]) | Plant response rating, Soybean (soybean [20]; [29])
40: Plant response rating, Ryegrass, Italian (ryegrass, Italian [15]; [30]) | Plant response rating, Barnyardgrass (barnyardgrass [19]; [31])
100: Pigweed, Palmer plant response rating (pigweed, palmer [5]; [28]) | Ryegrass, Italian plant response rating (ryegrass, Italian [6]; [28]) | Plant response rating, Pigweed, Palmer (pigweed, palmer [7]; [31]) | Plant response rating, Pigweed, Palmer (pigweed, palmer [7]; [30]) | Foxtail, Green plant response rating (green foxtail [10]; [28]) | Plant response rating, Galium (galium; [31]) | Plant response rating, Soybean (soybean [18]; [30]) | Soybean plant response rating (soybean [20]; [28])
0: Wheat plant response rating (wheat [2]; [28]) | Plant response rating, Wheat (wheat [2]; [29]) | Plant response rating, Corn (corn [3]; [29]) | Plant response rating, Oat, Wild (oat, wild [8]; [30]) | Oat, Wild plant response rating (oat, wild [17]; [28]) | Plant response rating, Oat, Wild (oat, wild [17]; [29])
30: Plant response rating, Blackgrass (blackgrass [22]; [29])
35: Plant response rating, Barnyardgrass (Flood) (barnyardgrass [1])
90: Plant response rating, Pigweed, Palmer (pigweed, palmer [5]; [29]) | Plant response rating, Galium (galium; [30]) | Plant response rating, Kochia (kochia [14]; [31]) | Plant response rating, Kochia (kochia [14]; [30]) | Barnyardgrass plant response rating (barnyardgrass [21]; [28])
80: Plant response rating, Ryegrass, Italian (ryegrass, Italian [6]; [29]) | Plant response rating, Foxtail, Green (green foxtail [10]; [29]) | Kochia plant response rating (kochia [23]; [28])

From patent US20260262643A1, “HERBICIDAL BENZOXAZINES” (FMC CORPORATION, priority 2022, published 2026)
